According to patent US20250282754A1, “BICYCLIC COMPOUNDS AND THEIR USE AS PEST CONTROL AGENTS” (Pl Industries Ltd., priority 2022, published 2025):

How the values were obtained:
Format in all cases: in vivo
Bemisia tabaci = Bemisia tabaci leaf dip test (brinjal leaves, whitefly adults); details: foliar, dead and moribund whitefly adults 72 h after release, compared to untreated controls, read-out: percent mortality
How it was run: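 Brinjal leaves were dipped 10 s in compound diluted in 0.01% Triton-X, dried, and placed on agar, then exposed to freshly emerged whitefly adults at 25° C, 70% RH. Dead plus moribund adults were counted at 72 h, and percent mortality was calculated relative to untreated controls.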

Myzus persicae = Myzus persicae leaf dip test (capsicum leaves, third instar nymphs); details: foliar, dead and moribund third instar nymphs 72 h after release, compared to untreated controls, read-out: percent mortality
Experimental: The leaf dip method was used for testing, wherein the required quantity of the compound was weighed and dissolved in a tube containing a solvent solution. The tube was put on a vortex at 2000 rpm for proper mixing and then diluted with a 0.01% Triton-X solution to the desired test concentration. Capsicum leaves were dipped in the compound solution for 10 seconds, shade dried for 20 min and then placed, with the abaxial side of the leaf up, in single cells of a bio-assay tray containing 4 ml of a solidified 1% agar-agar solution. Known numbers of third instar nymphs of Myzus persicae, collected in petri plates, were released into the cell with the treated leaf and the cell was covered with a perforated lid for better aeration. The trays were kept in a plant growth chamber at a temperature of 25° C. and a relative humidity of 70%. Observations on dead, moribund and alive nymphs were recorded 72 h after the release. Percent mortality was calculated by combining dead and moribund nymphs and comparing the result with the one of the untreated controls. The compounds

Nilaparvata lugens = Nilaparvata lugens seedling dip test (paddy seedlings, third instar nymphs); details: dead and moribund third instar nymphs 72 h after release, compared to untreated controls, read-out: percent mortality
How it was run: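 Paddy seedlings dipped 10 s in compound diluted with 0.01% Triton-X, shade dried, then infested with 15 third-instar nymphs at 25 °C, 75% RH. Mortality (dead plus moribund) scored at 72 h relative to untreated controls.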

Measured: mortality at 300 ppm

CCS(=O)(=Nc1cccc2nn(-c3cccnc3)cc12)C(C)C (stereo not drawn) [Compound 71]
≥ 70%: all assays above

CCS(=O)(CC)=Nc1cccc2nn(-c3cccnc3)cc12 [Compound 73]
≥ 70%: all assays above

COCCS(C)(=O)=Nc1ccc2nn(-c3cccnc3)cc2n1 (stereo not drawn) [Compound 236]
≥ 70%: all assays above

CC(C)S(C)(=O)=Nc1ccc2nn(-c3cccnc3)cc2n1 (stereo not drawn) [Compound 238]
≥ 70%: all assays above

CCS(=O)(=Nc1ccc2nn(-c3cccnc3)cc2n1)C(C)C (stereo not drawn) [Compound 240]
≥ 70%: all assays above

CCOc1nn(-c2ccc3nn(-c4cccnc4)cc3c2)c(=O)n1Cc1ccc(F)cc1 [Compound 337, 5-ethoxy-4-(4-fluorobenzyl)-2-(2-(pyridin-3-yl)-2H-indazol-5-yl)-2,4-dihydro-3H-1,2,4-triazol-3-one]
≥ 70%: all assays above

COc1nn(-c2ccc3nn(-c4cccnc4)cc3c2)c(=O)n1Cc1ccc(Cl)cc1 [Compound 354, 4-(4-chlorobenzyl)-5-methoxy-2-(2-(pyridin-3-yl)-2H-indazol-5-yl)-2,4-dihydro-3H-1,2,4-triazol-3-one]
≥ 70%: all assays above

N=S(=O)(CC1CC1)c1ccc2nn(-c3cccnc3)cc2c1 (stereo not drawn) [Compound 386, (cyclopropylmethyl)(imino)(2-(pyridin-3-yl)-2H-indazol-5-yl)-λ^6-sulfanone]
≥ 70%: all assays above

CCS(=N)(=O)c1ccc2nn(-c3cccnc3)cc2c1 (stereo not drawn) [Compound 387, ethyl(imino)(2-(pyridin-3-yl)-2H-indazol-5-yl)-λ^6-sulfanone]
≥ 70%: all assays above

CC(=O)N=S(=O)(c1ccc2nn(-c3cccnc3)cc2c1)C(C)C (stereo not drawn) [Compound 389]
≥ 70%: all assays above

CCN=S(=O)(c1ccc2nn(-c3cncc(F)c3)cc2c1)C(C)C (stereo not drawn) [Compound 397]
≥ 70%: all assays above

CC(C)S(=O)(=NC1CC1)c1ccc2nn(-c3cccnc3)cc2c1 (stereo not drawn) [Compound 406]
≥ 70%: all assays above

CCN=S(=O)(c1ccc2nn(-c3cncnc3)cc2c1)C(C)C (stereo not drawn) [Compound 419]
≥ 70%: all assays above

CCN=S(=O)(CC)c1ccc2nn(-c3cncnc3)cc2c1 (stereo not drawn) [Compound 457]
≥ 70%: all assays above

CCN=S(=O)(CC)c1ccc2nn(-c3cncc(F)c3)cc2c1 (stereo not drawn) [Compound 461]
≥ 70%: all assays above
